Consider 26 molecules from patent publication US20070249607A1, “NK-1 AND SEROTONIN TRANSPORTER INHIBITORS” (Bristol-Myers Squibb Company, priority 2006, published 2007).

The pIC50 is the IC50 on a negative log10 scale, so that one unit is a factor of ten.

In assay [1] the target is T1, human serotonin transporters (Homo sapiens, UniProt P31645).
T1 construct: expressed in transfected cells
Nature of the assay: Serotonin transporter binding assay ([3H]-citalopram competition, HEK-hSERT cell membranes). Particulars: Table 1; HEK-hSERT membranes, [3H]-citalopram displacement; read-out: SERT IC50. The method, then:
Serotonin transporter binding assay. HEK-293 cells that stably express human serotonin transporters (HEK-hSERT cells) were grown at 37° C. in 5% CO2 as a monolayer in medium consisting of EMEM supplemented with 10% fetal bovine serum and G418 sulfate (500 μg/ml). To prepare membranes for radioligand binding experiments, cells were rinsed twice with phosphate-buffered saline (138 mM NaCl, 4.1 mM KCl, 5.1 mM Na2PO4, 1.5 mM KH2PO4, 11.1 mM glucose, pH 7.4). Cells were transferred from plates to polypropylene tubes (16×100 mm), centrifuged at 1,200×g for 5 min and were frozen at −80° C. until assay. Following centrifugation, pellets were resuspended by homogenization in buffer consisting of 50 mM Tris (pH 7.7 at 25° C.), 120 mM NaCl and 5 mM KCl and then centrifuged at 32,000×g for 10 min. Following centrifugation, supernatants were discarded and pellets were resuspended in buffer consisting of 50 mM Tris (pH 7.4 at 25° C.), 150 mM NaCl and 5 mM KCl. Membrane homogenates (200 μl/plate) were incubated with 1 nM [^3H]-citalopram (specific activity=85 Ci/mmol) and increasing concentrations of test compounds for 1 hr at 25° C. in a total volume of 250 μl. The assay buffer consisted of 50 mM Tris (pH 7.4 at 25° C.), 120 mM NaCl and 5 mM KCl (pH 7.4 with conc. HCl). Plates were incubated for 1 hr at 25° C., then filtered through 0.5% PEI treated Whatman GF/B filters using a Brandel cell harvester. Filters were washed three times with 3 ml of ice-cold tris wash buffer. Non-specific binding was defined with 10 μM fluoxetine. Amount of radioligand bound in the presence and absence of competitor was analyzed by plotting (-)log drug concentration versus the amount of radioligand specifically bound. The midpoint of the displacement curve (IC50, nM), signifies the potency. Ki values can be calculated using the method of Cheng and Prusoff (Cheng and Prusoff, BiochemicalPharmacology, Vol 22, pp. 3099-3108, Pergamon Press (1973)).

For assay [2], the target named is T2, neurokinin-1 (NK-1) receptor (Homo sapiens, UniProt P25103).
T2 construct: a human glioblastoma-astrocytoma cell line that endogenously expresses the neurokinin-1 (NK-1) receptor; endogenous in cells; host or cells: U373 human glioblastoma-astrocytoma cells (membranes)
As to the kind of experiment: NK-1 Binding assay ([125I] Substance P competition, U373 cell membranes). To be noted: Table 1; U373 membranes, [125I] Substance P displacement; read-out: NK-1 IC50. On the procedure:
NK-1 Binding assay. U373 cells, a human glioblastoma-astrocytoma cell line that endogenously expresses the neurokinin-1 (NK-1) receptor, were grown in a monolayer culture at 37° C. in 5% CO2 and fed with Minimum Essential Medium (MEM) supplemented with 10% fetal bovine serum. Membranes were prepared as follows: Cells were washed twice with ice-cold phosphate-buffered saline (pH 7.4) and then incubated for 5-10 minutes with ice-cold 10 mM Tris buffer (pH 7.4) containing 5 mM EDTA. Cells were removed from plates, homogenized, and centrifuged at 32,000×g for 20 minutes. The resulting supernatant was discarded, and the pellet resuspended by homogenization in 50 mM Tris buffer (pH 7.4) containing 1 mM EDTA and centrifuged at 32,000×g for 20 minutes. The resulting supernatant was discarded, and the pellet resuspended by homogenization in NK-1 binding assay buffer (50 mM Tris-HCL (pH 7.4), 3 mM MnCl2, 200 μg/ml BSA, 5 μg/ml chymostatin, 40 μg/ml bacitracin and 4 μg/ml leupeptin).
On the day of an experiment the membrane preparation was thawed, homogenized and diluted with NK-1 binding assay buffer to the appropriate concentration. […] Substance P, at a concentration of […], and concentrations of drugs ranging from 10000 to 0.01 nM. Samples were incubated for 30 min at 20° C. then filtered through GF/B glass fiber filters (pretreated with 1% polyethyleneimine and 0.3% Triton X-100) using a Brandel cell harvester. The filters were then washed with 10 ml ice cold 50 mM Tris-HCL (pH 7.4) containing 3 mM MgCl2. […] The amount of radioligand bound in the presence and absence of competitor was analyzed by plotting (-)log drug concentration versus the amount of radioligand specifically bound. The midpoint of the displacement curve (IC50, nM), signifies the potency.

pIC50: −log10 of the molar value.

T2 sequence (P25103 whole entry): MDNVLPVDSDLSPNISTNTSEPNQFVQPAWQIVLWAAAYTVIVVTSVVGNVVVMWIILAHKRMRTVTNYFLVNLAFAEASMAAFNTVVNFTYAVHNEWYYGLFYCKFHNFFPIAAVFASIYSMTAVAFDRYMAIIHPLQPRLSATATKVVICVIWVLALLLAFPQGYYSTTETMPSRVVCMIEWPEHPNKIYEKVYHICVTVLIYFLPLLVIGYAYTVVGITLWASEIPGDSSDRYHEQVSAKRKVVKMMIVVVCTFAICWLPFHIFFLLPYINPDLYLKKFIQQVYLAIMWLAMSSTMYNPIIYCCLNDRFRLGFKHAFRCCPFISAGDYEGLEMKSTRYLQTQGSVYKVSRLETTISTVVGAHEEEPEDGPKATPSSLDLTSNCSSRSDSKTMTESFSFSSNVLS
T1 sequence (P31645 whole entry): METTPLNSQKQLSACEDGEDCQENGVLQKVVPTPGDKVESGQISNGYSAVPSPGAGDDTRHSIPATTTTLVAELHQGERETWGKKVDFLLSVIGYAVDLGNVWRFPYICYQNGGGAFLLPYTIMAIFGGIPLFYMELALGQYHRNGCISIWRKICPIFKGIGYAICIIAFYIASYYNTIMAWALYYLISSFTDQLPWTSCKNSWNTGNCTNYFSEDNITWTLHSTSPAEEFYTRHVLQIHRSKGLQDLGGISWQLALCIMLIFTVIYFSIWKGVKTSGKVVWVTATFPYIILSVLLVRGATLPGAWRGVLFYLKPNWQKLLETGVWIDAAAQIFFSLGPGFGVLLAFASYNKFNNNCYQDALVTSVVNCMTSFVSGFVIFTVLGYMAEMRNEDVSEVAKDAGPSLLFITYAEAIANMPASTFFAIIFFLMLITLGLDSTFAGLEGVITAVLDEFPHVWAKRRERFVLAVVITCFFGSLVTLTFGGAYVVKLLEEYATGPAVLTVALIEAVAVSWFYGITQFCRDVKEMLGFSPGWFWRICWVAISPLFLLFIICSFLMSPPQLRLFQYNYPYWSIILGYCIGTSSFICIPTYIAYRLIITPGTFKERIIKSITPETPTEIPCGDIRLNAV

On to `Cc1cc(-c2cc(COCC3(c4ccccc4)CCNCC3)cc(C(F)(F)F)c2)ccn1`, for which the pIC50 in assay [1] and in assay [2] was 7.00 to 11.00 throughout.

As to `FC(F)(F)c1cc(COCC2(c3ccccc3)CCNCC2)cc(-c2ccncc2)c1`, the pIC50 in assay [1] and in assay [2] was 7.00 to 11.00 each time.

Turning to `N#Cc1ccc(-c2cc(COCC3(c4ccccc4)CCNCC3)cc(C(F)(F)F)c2)cc1`, the pIC50 in assay [1] and in assay [2] was 7.00 to 11.00 each time.

On to `FC(F)(F)c1cc(COCC2(c3ccccc3)CCNCC2)cc(-c2cccc3cccnc23)c1`, for which the pIC50 was 7.00 to 11.00 in assay [1] and 6.52 to 7.00 in assay [2].

On to `OCc1cccc(-c2cc(COCC3(c4ccccc4)CCNCC3)cc(C(F)(F)F)c2)c1`, for which the pIC50 in assay [1] was 7.00 to 11.00; in assay [2] it was 6.52 to 7.00.

For `FC(F)(F)c1cc(COCC2(c3ccccc3)CCNCC2)cc(-c2cccc(-c3ccccc3)c2)c1`, the pIC50 in assay [1] and in assay [2] was 6.52 to 7.00 in each case.

In the case of `Fc1cc(F)cc(-c2cc(COCC3(c4ccccc4)CCNCC3)cc(C(F)(F)F)c2)c1`, the negative logarithm of the IC50 (pIC50) in assay [1] and in assay [2] was 7.00 to 11.00 throughout.

Take `CSc1ccccc1-c1cc(COCC2(c3ccccc3)CCNCC2)cc(C(F)(F)F)c1`: the values for the pIC50 in assay [1] and in assay [2] were 7.00 to 11.00 and 6.52 to 7.00, respectively.

Take `Cc1cc(C)c(-c2cc(COCC3(c4ccccc4)CCNCC3)cc(C(F)(F)F)c2)c(C)c1`: the pIC50 in assay [1] and in assay [2] was < 6.52 each time.

For `COc1ccc(OC)c(-c2cc(COCC3(c4ccccc4)CCNCC3)cc(C(F)(F)F)c2)c1`, the pIC50 was 7.00 to 11.00 in assay [1] and < 6.52 in assay [2].

For the molecule `COc1ccc(Cl)cc1-c1cc(COCC2(c3ccccc3)CCNCC2)cc(C(F)(F)F)c1`, the pIC50 in assay [1] was 7.00 to 11.00; in assay [2] it was < 6.52.

For `N#Cc1cccc(-c2cc(COCC3(c4ccccc4)CCNCC3)cc(C(F)(F)F)c2)c1`, the pIC50 in assay [1] and in assay [2] was 7.00 to 11.00 throughout.

Consider `COc1cccc(OC)c1-c1cc(COCC2(c3ccccc3)CCNCC2)cc(C(F)(F)F)c1`, for which the pIC50 in assay [1] and in assay [2] was 7.00 to 11.00 throughout.

Take `Fc1ccc(-c2cc(COCC3(c4ccccc4)CCNCC3)cc(C(F)(F)F)c2)c(F)c1`: the pIC50 in assay [1] and in assay [2] was 7.00 to 11.00 each time.

For `FC(F)(F)c1cc(COCC2(c3ccccc3)CCNCC2)cc(-c2ccccn2)c1`, the pIC50 in assay [1] and in assay [2] was 7.00 to 11.00 in each case.

As to `FC(F)(F)c1cc(COCC2(c3ccccc3)CCNCC2)cc(-c2ccco2)c1`, the pIC50 in assay [1] and in assay [2] was 7.00 to 11.00 throughout.

Take `FC(F)(F)c1cc(COCC2(c3ccccc3)CCNCC2)cc(-c2nccs2)c1`: the pIC50 in assay [1] and in assay [2] was 7.00 to 11.00 in each case.

Turning to `FC(F)(F)c1cc(COCC2(c3ccccc3)CCNCC2)cc(-c2ncccn2)c1`, the results for the pIC50 in assay [1] and in assay [2] were 7.00 to 11.00 and 6.52 to 7.00, respectively.

With `Cn1nc(C(F)(F)F)cc1-c1cc(COCC2(c3ccccc3)CCNCC2)cc(C(F)(F)F)c1`, the figures for the pIC50 in assay [1] and in assay [2] were 7.00 to 11.00 and < 6.52, respectively.

Regarding `Cn1cncc1-c1cc(COCC2(c3ccccc3)CCNCC2)cc(C(F)(F)F)c1`, the values for the pIC50 in assay [1] and in assay [2] were 7.00 to 11.00 and 6.52 to 7.00, respectively.

With `FC(F)(F)c1cc(COCC2(c3ccccc3)CCNCC2)cc(-c2ccccc2)c1`, the pIC50 in assay [1] and in assay [2] was 7.00 to 11.00 in each case.

`Cc1ccc(-c2cc(COCC3(c4ccccc4)CCNCC3)cc(C(F)(F)F)c2)s1`: the pIC50 in assay [1] and in assay [2] was 7.00 to 11.00 throughout.

`FC(F)(F)c1cc(COCC2(c3ccccc3)CCNCC2)cc(-n2nnnc2C(F)(F)F)c1`: the pIC50 is 7.00 to 11.00 in assay [1] and < 6.52 in assay [2].

Turning to `COc1ccc(-c2nnn(C)n2)cc1COCC1(c2ccccc2)CCNCC1`, the pIC50 is 6.52 to 7.00 in assay [1] and < 6.52 in assay [2].

On to `FC(F)(F)c1cc(COCC2(c3ccccc3)CCNCC2)cc(-c2nnn[nH]2)c1`, for which the pIC50 in assay [1] was 7.00 to 11.00; in assay [2], 6.52 to 7.00.

For the molecule `Cn1nnc(-c2cc(COCC3(c4ccccc4)CCNCC3)cc(C(F)(F)F)c2)n1`, the pIC50 in assay [1] and in assay [2] was 7.00 to 11.00 each time.
